Results on one molecule are retold here after paper PMC8904520, “Characterization of a small-molecule inhibitor targeting NEMO/IKKβ to suppress colorectal cancer growth” (Signal Transduction and Targeted Therapy, 2022).

In data set [1] the test system is NO release in LoVo and RKO cells. Nature of the data set: Nitric oxide production assay (Griess reagent). The class given is cell-based, human. On the procedure: After overnight culture in a 96-well plate (1 × 10^4 cells in 100 μL medium per well), the cells were pre-treated with SHK for 1 hour and lipopolysaccharide for an additional 24 hours. The culture supernatant from each well was collected at the end of the experiment and used to measure NO production. The NO production was determined using a commercial NO assay kit on the basis of the Griess reaction (S0021, Beyotime Institute of Biotechnology, Shanghai, China) according to the manufacturer’s instructions.

Data set [2] has as its system LoVo xenograft tumor. Briefly: LoVo xenograft tumor model. The format is in vivo, athymic nude mice. The following applies: mice. As to the method:
(§1) Female athymic nude mice aged 5 weeks were purchased from Beijing Vital River Laboratory Animal Technology Co., Ltd., and kept in the SPF Laboratory Animal Center of Dalian Medical University (Dalian, China). All animals were given free access to sterilized food and water and were habituated for 7 days before the experiments. All procedures were carried out in strict accordance with the recommendations established by the Animal Care and Ethics Committee of Dalian Medical University as well as the guidelines promulgated in the U.S. National Institutes of Health Guide for the Care and Use of Laboratory Animals. LoVo cells (LoVo/wt and LoVo/ mut, 5×10^6 in 100 μL PBS) were injected subcutaneously near the axillary fossa of each nude mouse. Two weeks later, when the formed tumor reached 3-4mm, the animals were divided randomly into three groups with 5 mice in each group. […] The tumors were measured with a caliper once every two days, and the tumor volume was calculated using the formula V = 1/2 (width^2 × length). The body weight of the animals was also recorded. After treatment with SHK for 15 days, all experimental mice were sacrificed and the tumors from each mouse were excised and their weight was measured. To determine the expression of the indicated proteins, the tumor tissues were fixed with 10% neutral formalin and embedded in paraffin. Then, 4 μm sections were stained with hematoxylin and eosin, in combination with specific antibodies (iNOS (1:100), COX-2 (1:50), IL-6 (1:100)), and TNFα (1:200)). The stained samples were examined under a Leica DM 4000B fluorescence microscope equipped with a digital camera. The other parts of the tumors were used to prepare tumor tissue lysates for western blot analysis.

In data set [3] the target is T1, IKKβ (Homo sapiens, UniProt O14920).
T1 construct: endogenous in cells; host or cells: LoVo cells
T1 sequence (Q9Y6K9 whole entry partner): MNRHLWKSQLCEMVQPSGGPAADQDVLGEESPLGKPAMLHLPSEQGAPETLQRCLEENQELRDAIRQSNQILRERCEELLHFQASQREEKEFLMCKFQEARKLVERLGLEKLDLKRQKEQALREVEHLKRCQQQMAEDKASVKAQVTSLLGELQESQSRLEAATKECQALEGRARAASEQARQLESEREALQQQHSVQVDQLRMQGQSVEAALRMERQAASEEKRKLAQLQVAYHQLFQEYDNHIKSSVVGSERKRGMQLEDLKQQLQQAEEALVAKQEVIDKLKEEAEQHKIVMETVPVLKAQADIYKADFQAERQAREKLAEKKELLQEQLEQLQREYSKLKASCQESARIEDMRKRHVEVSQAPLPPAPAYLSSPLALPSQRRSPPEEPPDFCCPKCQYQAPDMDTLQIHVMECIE
T1 sequence (O14920 whole entry): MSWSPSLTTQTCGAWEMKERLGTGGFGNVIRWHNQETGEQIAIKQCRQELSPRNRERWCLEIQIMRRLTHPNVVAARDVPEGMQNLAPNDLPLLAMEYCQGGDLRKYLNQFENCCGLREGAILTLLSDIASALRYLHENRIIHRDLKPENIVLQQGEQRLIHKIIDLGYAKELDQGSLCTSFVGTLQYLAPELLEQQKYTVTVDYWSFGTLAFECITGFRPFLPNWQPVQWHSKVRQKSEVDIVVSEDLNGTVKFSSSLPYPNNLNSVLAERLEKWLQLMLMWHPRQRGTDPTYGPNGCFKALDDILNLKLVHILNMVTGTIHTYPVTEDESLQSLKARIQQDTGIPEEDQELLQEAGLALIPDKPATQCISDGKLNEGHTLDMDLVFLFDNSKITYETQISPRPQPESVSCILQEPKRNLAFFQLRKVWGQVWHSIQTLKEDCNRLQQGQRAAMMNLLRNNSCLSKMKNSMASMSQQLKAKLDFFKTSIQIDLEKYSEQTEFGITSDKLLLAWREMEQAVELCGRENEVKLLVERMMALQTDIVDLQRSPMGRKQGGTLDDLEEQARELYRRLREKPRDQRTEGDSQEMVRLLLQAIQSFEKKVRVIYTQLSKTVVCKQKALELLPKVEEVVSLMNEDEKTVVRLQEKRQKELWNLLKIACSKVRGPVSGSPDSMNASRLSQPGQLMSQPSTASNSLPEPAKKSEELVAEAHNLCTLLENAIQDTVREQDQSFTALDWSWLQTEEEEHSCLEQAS
Briefly: IKKβ kinase activity in LoVo cells (spectrophotometric kit). The format is cell-based. As to the method: Fig. 3 Effect of SHK on NEMO/IKKβ/NF-κB signaling. a The protein levels of NEMO, p-IKKβ/IKKβ, and p-IκBα/IκBα in LoVo cells treated with the indicated doses of SHK were analyzed by western blotting. b The protein levels of NEMO, p-IKKβ/IKKβ, p-IκBα/IκBα protein in tumor tissues were analyzed by western blotting. c LoVo cells were co-transfected with pNFκB-luc containing a Renilla luciferase reporter (as internal control) for 24 h and then treated with SHK for 48 h. Luciferase activity was determined using a dual-luciferase reporter assay system. d The IKKβ kinase activity was assessed using a spectrophotometric quantitative detection kit in LoVo cells. The relative activity was calculated using the provided formula. e The subcellular localizations of p50/p65 in LoVo cells following 48 h of treatment with SHK was examined by confocal microscopy analysis. The protein levels of p65 and p50 in nucleus (f) and whole-cell lysates (g) were measured by western blot analysis. Lamin B1 and β-actin were used as controls for sample loading. h The binding of p65 and p50 to a COX-2 promoter probe was analyzed using a streptavidin-agarose pull-down assay. The data are presented as the means ± SD of at least three separate experiments. (*p < 0.05, **p < 0.01, SHK treatment group vs. vehicle control group)

Data set [4] relates to NF-κB luciferase activity in LoVo cells. Nature of the data set: NF-κB dual-luciferase reporter assay. The format is cell-based, human. The note with it: 0.5 and 1 µM, 48 h. As to the method:
LoVo cells in a 6-well plate were transfected with the pNFκB-luc plasmid (Beyotime), which contains the luciferase coding region downstream of an NFκB-responsive promoter, using Lipofectamine 2000 Reagent (Invitrogen, Grand Island, NY, USA). After transfection, the cells were treated with SHK (0.5 and 1µM) for 48 h. The dual-luciferase reporter assay system (Promega, Madison, WI) was used to measure the changes of luciferase activity in the cell lysates. The firefly luciferase activities were normalized to the corresponding Renilla luciferase activities. All values are shown as means ± SD of triplicate experiments.

The target in data set [5] is T2, NEMO/IKKβ complex (Homo sapiens, UniProt O14920+Q9Y6K9).
T2 construct: expressed in transfected cells; host or cells: HEK293T
Briefly: Co-immunoprecipitation of NEMO/IKKβ. The following applies: Co-IP. On the procedure: The pre-cleared cell lysates were incubated with an anti-HA antibody on a rotating platform at 4 °C for 2 h, and then incubated for another 6 h with protein A/G-sepharose beads. The sepharose beads were washed three times with binding buffer, mixed with gel loading buffer and boiled for 5 min. The samples were centrifuged and the supernatants were used for western blot analysis. A specific antibody against the Flag-tag was applied for the detection of proteins.
The IKKβ and NEMO expression vectors were constructed by subcloning the full-length cDNA to pENTER-4T1 expression vector (Flag- or HA-tagged) developed by ViGene Biosciences, as described previously.[25] The 293T cells (1 × 10^6) were plated into 60 mm dishes for 1 day, and then transfected with the relevant plasmids encoding HA-IKKβ and Flag-NEMO using Lipofectamine 2000 transfection reagent (Invitrogen). After transfection, the cells were cultured for another 24 h. Subsequently, the transfected cells were trypsinized and seeded into 60 mm dishes, followed by culturing with fresh medium containing the indicated doses of SHK for 48 h, and then collected for the Co-IP assay.

In data set [6] the test system is LoVo cells. Nature of the data set: Real-time cell growth (xCELLigence) in IKKβ or NEMO depleted or mutant LoVo cells. The class given is cell-based, human. The note with it: SHK 1 μM.
The subject of data set [7] is LoVo/IKKβmut (D738A/W739A/W741A) xenograft. Nature of the data set: LoVo/IKKβmut xenograft mouse model. The format is in vivo, athymic nude mice. Also noted: dose or concentration left out as unconfirmed. As to the method:
as §1, with “To determine the expression of the indicated proteins, the tumor tissues were fixed with 10% neutral formalin and embedded in paraffin. Then, 4 μm sections were stained with hematoxylin and eosin, in combination with specific antibodies (iNOS (1:100), COX-2 (1:50), IL-6 (1:100)), and TNFα (1:200)).” left out, “The other parts of the tumors were used to prepare tumor tissue lysates for western blot analysis.” left out

`CC(C)=CC[C@@H](O)C1=CC(=O)c2c(O)ccc(O)c2C1=O` [SHK, Shikonin]: in data set [1], the “release of NO” value is “dramatically decreased”. Besides, in data set [2] (2.5 and 5 mg/kg daily), the tumor volume result is recorded as “dramatically decreased” and the tumor weight entry was “dramatically decreased”. In addition, in data set [2] (2.5 and 5 mg/kg), the “side effects (body weight)” value is “slight side effects”. For the same molecule, the “phosphorylation and kinase activity of IKKβ” value in data set [3] is “suppressed the phosphorylation and kinase activity of IKKβ in a dose-dependent manner”. Further, the NF-κB luciferase activity entry in data set [4] is given as “significant inhibition”. Besides, the “association of full-length HA-IKKβ and Flag-NEMO” value in data set [5] (HEK293T cells) is recorded as “greatly reduced”. Further, the “ability to destabilize the NEMO/IKKβ complex” value in data set [5] (pre-formed complex) is given as “effectively reversed their association”. Further, the “inhibitory effect on growth of single point mutation cells compared with wild-type” value in data set [6] (LoVo cells rescued with L737A, M94A, Q98A or R101A) is “significantly weakened”. Also, the “inhibitory effect on growth of IKKβ or NEMO depletion cells” value in data set [6] (LoVo cells with shRNA) is listed as “significantly weakened”. Besides, in data set [7], the “inhibitory effect on tumor growth in LoVo/IKKβ mutant group compared with LoVo/wt” value is on record as “significantly weakened”.
